Here are results for 13 compounds from patent EP4755888A1 (ILAb Co., Ltd., priority 2023, dated 2025).

The target of test [1] is T1, PD-L1 expressed on the cell surface (MC38 hPD-L1) (Homo sapiens, UniProt Q9NZQ7).
T1 construct: expressed in transfected cells; host or cells: MC38 mouse colon cancer cell line expressing human PD-L1
Briefly: Internalization of cell surface PD-L1, flow cytometry with fluorescent staining. As to conditions: MC38 hPD-L1 cells, 1 µM, 4 hours; untreated 90% to 99%. It counts as cell-based. As to the method:
In order to evaluate the internalization of cell surface PD-L1 induced by the compounds of the present invention synthesized according to the above Preparation Examples, a flow cytometry experiment using fluorescent staining was conducted as described below.
Specifically, a mouse colon cancer cell line expressing human PD-L1 (MC38 hPD-L1) was seeded into a 24-well plate at a density of 5 x 10^5 cells per well, followed by treatment with Compounds 206 to 227 at a concentration of 1 µM and incubation for 4 hours. After 4 hours, the compound-treated MC38 hPD-L1 cells were collected and stained with PE anti-hPD-L1 fluorecence at room temperature for 30 minutes. The rate of PD-L1 expression on the cell surface was then quantified using flow cytometry.

The test system of test [2] is PD-1/PD-L1. Briefly: PD-1/PD-L1 blockade bioassay at the cellular level (PD-L1 aAPC/CHO-K1 cells + PD-1 Effector T cells, luciferase). To be noted: Homo sapiens, T-cell; PD-L1 aAPC/CHO-K1 cells with PD-1 Effector T cells, 6 hours, luminescence; read-out: PD-1/PD-L1 Inhibitory Activity EC50. In kind it is cell-based. As to the method:
In order to evaluate the effect of the compounds of the present invention, synthesized according to the above Preparation Examples, on blocking signal transduction between PD-1/PD-L1-expressing cells, a PD-1/PD-L1 blockade bioassay was conducted as described below.
Specifically, PD-L1 aAPC/CHO-K1 cells engineered to express human PD-L1 were seeded into a 96-well white plate and cultured for one day. On the following day, the compounds were prepared in a 96-well plate by serial dilution at concentrations starting from 10 µM and 5 µM, followed by 1/4 dilutions to obtain a total of ten concentrations. The culture medium in the plate seeded with the PD-L1 aAPC/CHO-K1 cell line was removed, and 40 µL of each prepared compound solution was added to a 96-well plate. Thereafter, 40 µL of PD-1 Effector T cell line engineered to express human PD-1 was additionally added, and then cultured for 6 hours. After 6 hours, 80 µL of Bio-Glo luciferase buffer was added to each well, followed by incubation at room temperature for 10 minutes, and luminescence was measured using a microplate reader.

In test [3] the target is PD-1/PD-L1 (Homo sapiens, UniProt Q9NZQ7). As to the kind of experiment: TR-FRET PD-1/PD-L1 binding inhibition at the molecular level (free proteins). The procedure, abridged:
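HTRF read-out at 665/620 nm after 2 h at room temperature. Detection used anti-Tag1 Eu cryptate plus anti-Tag2 XL665 antibodies. Tagged PD-L1 and PD-1 proteins were pre-mixed with compound across twelve […] 1:2 dilutions starting at 200 nM.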

Where [4] appears, read: Tag1-PD-L1 and Tag2-PD-1 proteins, twelve concentrations from 200 nM, 2 hours at room temperature, read-out: FRET assay (IC50).

Read-outs that look alike come from different tables or passages of the source.

T1 sequence (Q9NZQ7 19-290): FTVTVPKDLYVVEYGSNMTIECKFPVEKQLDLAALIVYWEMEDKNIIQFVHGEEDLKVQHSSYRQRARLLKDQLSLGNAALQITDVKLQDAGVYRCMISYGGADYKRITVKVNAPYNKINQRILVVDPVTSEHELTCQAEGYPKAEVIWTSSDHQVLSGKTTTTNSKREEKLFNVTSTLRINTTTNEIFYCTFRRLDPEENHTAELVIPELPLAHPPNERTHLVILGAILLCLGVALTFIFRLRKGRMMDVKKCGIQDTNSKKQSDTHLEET
PD-1/PD-L1 (Homo sapiens, UniProt Q9NZQ7), sequence (Q9NZQ7 19-238 limits assumed): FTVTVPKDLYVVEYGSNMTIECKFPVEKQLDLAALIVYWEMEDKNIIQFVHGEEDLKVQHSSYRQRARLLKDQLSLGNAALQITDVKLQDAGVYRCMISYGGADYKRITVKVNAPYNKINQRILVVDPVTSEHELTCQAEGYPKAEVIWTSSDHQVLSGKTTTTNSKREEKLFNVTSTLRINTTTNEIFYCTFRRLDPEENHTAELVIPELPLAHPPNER

For `O=C(Nc1cccc(-c2cccc(NC(=O)c3cc4n(n3)CCC[C@@H]4NCCO)c2Cl)c1Cl)c1ccc(CNCCO)cn1` [Compound 206, (S)-N-(2,2'-dichloro-3'-(5-(((2-hydroxyethyl)amino)methyl)picolinamido)-[1,1'-biphenyl]-3-yl)-4-((2-hydroxyethyl)amino)-4,5,6,7-tetrahydropyrazolo[1,5-a]pyridine-2-carboxamide], in test [1], the “Cell surface PD-L1 expression level (%)” value is on record as 0.9%. The EC50 in test [2] was 15.7 nM. In addition, the IC50 in test [3] (setting [4]) is below 10 nM.
In the same order, the values of `O=C(Nc1cccc(-c2cccc(NC(=O)c3cc4n(n3)CCC[C@H]4NCCO)c2Cl)c1Cl)c1ccc(CNCCO)cn1` [Compound 207, (R)-N-(2,2'-dichloro-3'-(5-(((2-hydroxyethyl)amino)methyl)picolinamido)-[1,1'-biphenyl]-3-yl)-4-((2-hydroxyethyl)amino)-4,5,6,7-tetrahydropyrazolo[1,5-a]pyridine-2-carboxamide] are 77.5%, 85.8 nM and below 10 nM.
Regarding `O=C(Nc1cccc(-c2cccc(NC(=O)c3cc4n(n3)CCC[C@@H]4N3CC[C@@H](C(=O)O)C3)c2Cl)c1Cl)c1ccc(CNCCO)cn1` [Compound 208, (R)-1-((S)-2-((2,2'-dichloro-3'-(5-(((2-hydroxyethyl)amino)methyl)picolinamido)-[1,1'-biphenyl]-3-yl)carbamoyl)-4,5,6,7-tetrahydropyrazolo[1,5-a]pyridin-4-yl)pyrrolidine-3-carboxylic acid], the “Cell surface PD-L1 expression level (%)” value in test [1] is 0.5%. The EC50 in test [2] was 12.6 nM. For the same compound, the IC50 in test [3] (setting [4]) was below 10 nM.
Regarding `Cc1c(NC(=O)c2cc3n(n2)CCC[C@@H]3N2CC[C@@H](C(=O)O)C2)cccc1-c1cccc(Nc2nc(C(F)F)nc3cc(CN4CC[C@@H](O)C4)cnc23)c1C` [Compound 210, (R)-1-((S)-2-((3'-((2-(difluoromethyl)-7-(((R)-3-hydroxypyrrolidin-1-yl)methyl)pyrido[3,2-d]pyrimidin-4-yl)amino)-2,2'-dimethyl-[1,1'-biphenyl]-3-yl)carbamoyl)-4,5,6,7-tetrahydropyrazolo[1,5-a]pyridin-4-yl)pyrrolidine-3-carboxylic acid], the “Cell surface PD-L1 expression level (%)” value in test [1] is on record as 3.2%. For the same compound, the EC50 in test [2] came to 16 nM. For the same compound, the IC50 in test [3] (setting [4]) is below 10 nM.
On to `Cc1c(NC(=O)c2cc3n(n2)CCC[C@@H]3NCC(=O)O)cccc1-c1cccc(Nc2nc(C(F)F)nc3cc(CN4CC[C@@H](O)C4)cnc23)c1C` [Compound 212, 2-(((S)-2-((3'-((2-(difluoromethyl)-7-(((R)-3-hydroxypyrrolidin-1-yl)methyl)pyrido[3,2-d]pyrimidin-4-yl)amino)-2,2'-dimethyl-[1,1'-biphenyl]-3-yl)carbamoyl)-4,5,6,7-tetrahydropyrazolo[1,5-a]pyridin-4-yl)amino)acetic acid], for which the “Cell surface PD-L1 expression level (%)” value in test [1] came to 22.1%. Also, the EC50 in test [2] stood at 32.3 nM. For the same compound, the IC50 in test [3] (setting [4]) was below 10 nM.
Take `Cc1c(NC(=O)c2ccc(CN3CC[C@@H](O)C3)cn2)cccc1-c1cccc(NC(=O)c2cc3n(n2)CCC[C@@H]3NCCO)c1C` [Compound 214, (S)-4-((2-hydroxyethyl)amino)-N-(3'-(5-(((R)-3-hydroxypyrrolidin-1-yl)methyl)picolinamido)-2,2'-dimethyl-[1,1'-biphenyl]-3-yl)-4,5,6,7-tetrahydropyrazolo[1,5-a]pyridine-2-carboxamide]: the “Cell surface PD-L1 expression level (%)” value in test [1] came to 5.7%. Also, the EC50 in test [2] was 40.1 nM. In addition, the IC50 in test [3] (setting [4]) was below 10 nM.
As for `Cc1c(NC(=O)c2ccc(CN3CC[C@@H](O)C3)cn2)cccc1-c1cccc(NC(=O)c2cc3n(n2)CCC[C@H]3N2CC[C@@H](O)C2)c1C` [Compound 217], the “Cell surface PD-L1 expression level (%)” value in test [1] was 82.8%. Further, in test [2], the EC50 is 251 nM. Also, the IC50 in test [3] (read-out: FRET assay (IC50), Tag1-PD-L1 and Tag2-PD-1 proteins, twelve concentrations from 200 nM, 2 hours at room temperature) is below 10 nM.
Turning to `O=C(O)CN[C@@H]1CCCn2nc(C(=O)Nc3cccc(-c4cccc(Nc5nccc6cc(CN7CC[C@@H](O)C7)cnc56)c4Cl)c3Cl)cc21` [Compound 219, 2-(((R)-2-((2,2'-dichloro-3'-((3-(((R)-3-hydroxypyrrolidin-1-yl)methyl)-1,7-naphthyridin-8-yl)amino)-[1,1'-biphenyl]-3-yl)carbamoyl)-4,5,6,7-tetrahydropyrazolo[1,5-a]pyridin-4-yl)amino)acetic acid], in test [1], the “Cell surface PD-L1 expression level (%)” value is 36.5%. For the same compound, the IC50 in test [3] (setting [4]) is below 10 nM.
Regarding `O=C(O)CN[C@@H]1CCCn2nc(C(=O)Nc3cccc(-c4cccc(NC(=O)c5ccc(CNCCO)cn5)c4Cl)c3Cl)cc21` [Compound 221, (R)-2-((2-((2,2'-dichloro-3'-(5-(((2-hydroxyethyl)amino)methyl)picolinamido)-[1,1'-biphenyl]-3-yl)carbamoyl)-4,5,6,7-tetrahydropyrazolo[1,5-a]pyridin-4-yl)amino)acetic acid], the “Cell surface PD-L1 expression level (%)” value in test [1] is 41.3%. For the same compound, the IC50 in test [3] (setting [4]) was below 10 nM.
On to `O=C(O)CN[C@@H]1CCCn2nc(C(=O)Nc3cccc(-c4cccc(NC(=O)c5ccc(CN6CC[C@@H](O)C6)cn5)c4Cl)c3Cl)cc21` [Compound 223, 2-(((R)-2-((2,2'-dichloro-3'-(5-(((R)-3-hydroxypyrrolidin-1-yl)methyl)picolinamido)-[1,1'-biphenyl]-3-yl)carbamoyl)-4,5,6,7-tetrahydropyrazolo[1,5-a]pyridin-4-yl)amino)acetic acid], for which the “Cell surface PD-L1 expression level (%)” value in test [1] is 66.4%. For the same compound, the IC50 in test [3] (setting [4]) lay within 10 to 100 nM.
As for `O=C1CC[C@@H](CN[C@H]2CCCn3nc(C(=O)Nc4cccc(-c5cccc(NC(=O)c6ccc(CNCCO)cn6)c5Cl)c4Cl)cc32)N1` [Compound 224, (S)-N-(2,2'-dichloro-3'-(5-(((2-hydroxyethyl)amino)methyl)picolinamido)-[1,1'-biphenyl]-3-yl)-4-((((S)-5-oxopyrrolidin-2-yl)methyl)amino)-4,5,6,7-tetrahydropyrazolo[1,5-a]pyridine-2-carboxamide], the “Cell surface PD-L1 expression level (%)” value in test [1] is 70.8%. For the same compound, the IC50 in test [3] (setting [4]) is below 10 nM.
For the compound `O=C1CC[C@@H](CN[C@@H]2CCCn3nc(C(=O)Nc4cccc(-c5cccc(NC(=O)c6ccc(CNCCO)cn6)c5Cl)c4Cl)cc32)N1` [Compound 225, (R)-N-(2,2'-dichloro-3'-(5-(((2-hydroxyethyl)amino)methyl)picolinamido)-[1,1'-biphenyl]-3-yl)-4-((((S)-5-oxopyrrolidin-2-yl)methyl)amino)-4,5,6,7-tetrahydropyrazolo[1,5-a]pyridine-2-carboxamide], the “Cell surface PD-L1 expression level (%)” value in test [1] turned out to be 1.6%. Besides, in test [3] (setting [4]), the IC50 fell in the range of 10 to 100 nM.
Turning to `O=C(Nc1cccc(-c2cccc(Nc3nccc4cc(CN5CC[C@H](O)C5)cnc34)c2Cl)c1Cl)c1cc2n(n1)CCC[C@@H]2N1CCC(C(=O)O)CC1` [Compound 226, 1-((S)-2-((2,2'-dichloro-3'-((3-(((S)-3-hydroxypyrrolidin-1-yl)methyl)-1,7-naphthyridin-8-yl)amino)-[1,1'-biphenyl]-3-yl)carbamoyl)-4,5,6,7-tetrahydropyrazolo[1,5-a]pyridin-4-yl)piperidine-4-carboxylic acid], in test [1], the “Cell surface PD-L1 expression level (%)” value is reported as 80.8%. The IC50 in test [3] (setting [4]) lay within 10 to 100 nM.
